Data from US20170129903A1, “COMPOUNDS COMPRISING 1,1a,2,5a-TETRAHYDROSPIRO[INDOLE-3,2a-PYRROLE]-2,5a-DIONE SYSTEM AS INHIBITORS P53-MDM2 PROTEIN-PROTEIN INTERACTION” (ADAMED SP. Z O.O., priority 2014, published 2017).

Columns and labels:
[1] = molecular target: T1, p53-Mdm2 interaction (N-terminal domain of Mdm2 protein, amino acids 1-111) (Homo sapiens, UniProt Q00987); assay: Fluorescence polarization (FP) binding assay of p53-Mdm2 interaction; settings: for Ki: FP assay, 130 nM Mdm2, FAM-labelled p53 peptide, Ki transformed from IC50 using Kenakin equation
T1 construct: N-terminal domain of Mdm2 protein (amino acids 1-111)
Summary of the method: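 N-terminal Mdm2 (aa 1-111) at 130 nM preincubated 15 min with compound (5% DMSO) in PBS, 0.1% CHAPS, 5 mM DTT, then […] FAM-labelled p53 peptide added. Polarization read after 90 min at room temperature (ex 470/em 520 nm). IC50 converted to Ki by Kenakin equation.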

[2] = system: SJSA-1 osteosarcoma cell line; assay: MTT cell viability assay; type: cell-based; settings: Homo sapiens, SJSA-1, 72 h, 72 h incubation, average of 2-5 experiments
Summary of the method: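 Cells exposed to serial compound dilutions for 72 h, then MTT (0.5 mg/ml final) added for 4 h; formazan dissolved in DMSO. IC50 from dose-response curves, 2-5 independent repeats.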

[3] = system: SJSA-1 xenograft; assay: In vivo efficacy in the SJSA-1 xenograft model in mice; settings: compound 93 100 mg/kg p.o. q1dx14 vs control NaCl 0.9%, female Crl:SHO-Prkdc scid Hr hr mice, during and at the end of study
Protocol: The experiment was conducted on female mice from the Crl:SHO-Prkdc^scidHr^hr strain. Mice were inoculated subcutaneously in the right flank with cancer cell line SJSA-1 in the amount of […] cells suspended in 100 μl HBSS: Matrigel matrix in a 3:1 ratio per mouse. On the 16th day after inoculation mice were divided into groups, so that in each group the mean tumor volume was similar and averaged around 160 mm^3. Two experiment groups were selected, each consisting of 5 mice: Control NaCl 0.9% and compound 93. The compound 93 was dissolved in 15% PEG400, 10% Cremophore EL, 75% H2O.
Mice used in the experiment were administered per os (p.o.) with compounds or NaCl 0.9% in a q1dx14 schedule (14 doses, daily). During the course of experiment mice were weighed before each administration,—twice/thrice a week. Animal welfare was monitored daily.
Change in tumor volume was monitored twice/thrice a week starting from the first day of administration. Tumor volume was calculated based on its length and width measured with an electronic calipers:
V[mm^3]=d^2×D/2 • where d—width, D—length.
The tumor volume in the compound 93 group was measured up to 68 days after inoculation (39 days after last administration). Results of the experiment were expressed as mean values of tumor volume ±SEM. All calculations and graphs were performed using GraphPad Prism 5 software. […]

T1 sequence (Q00987 1-111): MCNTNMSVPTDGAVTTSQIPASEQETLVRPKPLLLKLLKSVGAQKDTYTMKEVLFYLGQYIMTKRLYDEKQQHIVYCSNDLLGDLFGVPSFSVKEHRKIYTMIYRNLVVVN

Ki [1] [nM] | IC50 [2] [µM] | times more potent than the corresponding S/R (racemic) mixture ([1]; enantiopure S isomers vs racemic Compounds 71, 93 and 72, respectively) | SMILES | difference in body weight or welfare between experiment groups [3]
20 | 10.2 | – | Cc1ccc(Cl)cc1N1C(=O)c2n[nH]c(C(C)C)c2C12C(=O)Nc1cc(Cl)ccc12 (stereo not drawn) [Compound 23, 6-chloro-5′-(5-chloro-2-methylphenyl)-3′-(propan-2-yl)-1,2,5′,6′-tetrahydro-2′H-spiro[indole-3,4′-pyrrolo[3,4-c]pyrazole]-2,6′-dione] | –
800 | 39.6 | – | CS(=O)(=O)OC1=C(c2ccccc2)C2(C(=O)Nc3cc(Cl)ccc32)N(c2cccc(Cl)c2)C1=O (stereo not drawn) [Compound 52, 6-chloro-1′-(3-chlorophenyl)-2,5′-dioxo-3′-phenyl-1,1′,2,5′-tetrahydrospiro[indole-3,2′-pyrrole]-4′-yl methanesulfonate] | –
70 | 15.1 | – | COc1ccc(Cl)cc1N1C(=O)c2n[nH]c(C(C)(C)C)c2C12C(=O)Nc1cc(Cl)ccc12 (stereo not drawn) [Compound 21, 3′-tert-butyl-6-chloro-5′-(5-chloro-2-methoxyphenyl)-1,2,5′,6′-tetrahydro-2′H-spiro[indole-3,4′-pyrrolo[3,4-c]pyrazole]-2,6′-dione] | –
23 | 4.91 | – | COc1ccccc1-n1nc2c(c1C1(C)CC1)C1(C(=O)Nc3cc(Cl)ccc31)N(c1cccc(Cl)c1)C2=O (stereo not drawn) [Compound 26, 6-chloro-5′-(3-chlorophenyl)-2′-(2-methoxyphenyl)-3′-(1-methylcyclopropyl)-1,2,5′,6′-tetrahydro-2′H-spiro[indole-3,4′-pyrrolo[3,4-c]pyrazole]-2,6′-dione] | –
1.9 | 0.22 | – | COc1ccccc1-n1nc2c(c1C(C)C)[C@@]1(C(=O)Nc3cc(Cl)ccc31)N(c1cc(Cl)ccc1C)C2=O [Compound 65, (3S)-6-chloro-5′-(5-chloro-2-methyl-phenyl)-2′-(2-methoxyphenyl)-3′-(propan-2-yl)-1,2,5′,6′-tetrahydro-2′H-spiro[indole-3,4′-pyrrolo[3,4-c]pyrazole]-2,6′-dione] | –
45 | 10.8 | – | Cc1ccc(Cl)cc1N1C(=O)c2n[nH]c(C3(C)CC3)c2C12C(=O)Nc1cc(Cl)ccc12 (stereo not drawn) [Compound 18, 6-chloro-5′-(5-chloro-2-methylphenyl)-3′-(1-methylcyclopropyl)-1,2,5′,6′-tetrahydro-2′H-spiro[indole-3,4′-pyrrolo [3,4-c]pyrazole]-2,6′-dione] | –
581 | 29.6 | – | NC(=O)CSC1=C(c2ccccc2)C2(C(=O)Nc3cc(Cl)ccc32)N(c2cccc(Cl)c2)C1=O (stereo not drawn) [Compound 53, 2-[6-chloro-1′-(3-chlorophenyl)-2,5′-dioxo-3′-phenyl-1,1′,2,5′-tetrahydrospiro [indole-3,2′-pyrrole]-4′-ylsulfanyl] acetamide] | –
42 | 11.4 | – | COc1ccccc1-n1nc2c(c1C(C)C)C1(C(=O)Nc3cc(Cl)ccc31)N(c1cc(Cl)ccc1OCCS(C)(=O)=O)C2=O (stereo not drawn) [Compound 73, 6-chloro-5′-[5-chloro-2-(2-methanesulfonylethoxy)phenyl]-2′-(2-methoxyphenyl)-3′-(propan-2-yl)-1,2,5′,6′-tetrahydro-2′H-spiro[indole-3,4′-pyrrolo [3,4-c]pyrazole]-2,6′-dione] | –
4.7 | 1.77 | – | COc1cc2[nH]c(=O)[nH]c2cc1-n1cc2c(c1C(C)C)C1(C(=O)Nc3cc(Cl)ccc31)N(c1cc(Cl)ccc1C)C2=O (stereo not drawn) [Compound 101, 6-chloro-2′-(5-chloro-2-methylphenyl)-5′-(6-methoxy-2-oxo-2,3-dihydro-1H-1,3-benzodiazol-5-yl)-6′-(propan-2-yl)-1,2,3′,5′-tetrahydro-2′H-spiro[indole-3,1′-pyrrolo[3,4-c]pyrrole]-2,3′-dione] | –
3.8 | 0.42 | – | COc1ccc(-n2cc3c(c2C(C)C)C2(C(=O)Nc4cc(Cl)ccc42)N(c2cc(Cl)ccc2C)C3=O)c(OC)c1 (stereo not drawn) [Compound 93, 6-chloro-2′-(5-chloro-2-methylphenyl)-5′-(2,4-dimethoxyphenyl)-6′-(propan-2-yl)-1,2,3′,5′-tetrahydro-2′H-spiro[indole-3,1′-pyrrolo[3,4-c]pyrrole]-2,3′-dione] | No significant difference
86 | 13 | – | CCc1ccccc1-n1nc2c(c1CC)C1(C(=O)Nc3cc(Cl)ccc31)N(c1cc(Cl)ccc1C)C2=O (stereo not drawn) [Compound 85, 6-chloro-5′-(5-chloro-2-methylphenyl)-3′-ethyl-2′-(2-ethylphenyl)-1,2,5′,6′-tetrahydro-2′H-spiro[indole-3,4′-pyrrolo [3,4-c]pyrazole]-2,6′-dione] | –
4.6 | 0.38 | – | CCN(CC)S(=O)(=O)c1ccc(OC)c(-n2cc3c(c2C(C)C)C2(C(=O)Nc4cc(Cl)ccc42)N(c2cc(Cl)ccc2C)C3=O)c1 (stereo not drawn) [Compound 98, 3-[6-chloro-2′-(5-chloro-2-methylphenyl)-2,3′-dioxo-6′-(propan-2-yl)-1,2,3′,5′-tetrahydro-2′H-spiro[indole-3,1′-pyrrolo [3,4-c]pyrrole]-5′-yl]-N,N-diethyl-4-methoxybenzene-1-sulfonamide] | –
1.9 | 0.06 | about 2 times | COc1ccc(-n2cc3c(c2C(C)C)[C@@]2(C(=O)Nc4cc(Cl)ccc42)N(c2cc(Cl)ccc2C)C3=O)c(OC)c1 [Compound 107, (3S)-6-chloro-2′-(5-chloro-2-methylphenyl)-5′-(2,4-dimethoxyphenyl)-6′-(propan-2-yl)-1,2,3′,5′-tetrahydro-2′H-spiro[indole-3,1′-pyrrolo[3,4-c]pyrrole]-2,3′-dione] | –
67 | 4.04 | – | Cc1cccc(-n2nc3c(c2C(C)C)C2(C(=O)Nc4cc(Cl)ccc42)N(c2cc(Cl)ccc2C)C3=O)c1 (stereo not drawn) [Compound 69, 6-chloro-5′-(5-chloro-2-methylphenyl)-2′-(3-methylphenyl)-3′-(propan-2-yl)-1,2,5′,6′-tetrahydro-2′H-spiro[indole-3,4′-pyrrolo[3,4-c]pyrazole]-2,6′-dione] | –
235 | 24.2 | – | CC(C)c1c2c(nn1CC1CCCN1C(=O)N(C)C)C(=O)N(c1cccc(Cl)c1)C21C(=O)Nc2cc(Cl)ccc21 (stereo not drawn) [Compound 34, 2-[6-chloro-5′-(3-chlorophenyl)-2,6′-dioxo-3′-(propan-2-yl)-1,2,5′,6′-tetrahydro-2′H-spiro[indole-3,4′-pyrrolo [3,4-c]pyrazole]-2′-ylmethyl]-N,N-dimethylpyrrolidine-1-carboxamide] | –
94 | 10.2 | – | COc1ccc(Cl)cc1N1C(=O)c2n[nH]c(C(C)C)c2C12C(=O)Nc1cc(Cl)ccc12 (stereo not drawn) [Compound 25, 6-chloro-5′-(5-chloro-2-methoxyphenyl)-3′-(propan-2-yl)-1,2,5′,6′-tetrahydro-2′H-spiro[indole-3,4′-pyrrolo[3,4-c]pyrazole]-2,6′-dione] | –
4 | 0.3 | – | COc1ccc(N)cc1-n1cc2c(c1C(C)C)C1(C(=O)Nc3cc(Cl)ccc31)N(c1cc(Cl)ccc1C)C2=O (stereo not drawn) [Compound 96, 5′-(5-amino-2-methoxyphenyl)-6-chloro-2′-(5-chloro-2-methylphenyl)-6′-(propan-2-yl)-1,2,3′,5′-tetrahydro-2′H-spiro [indole-3,1′-pyrrolo[3,4-c]pyrrole]-2,3′-dione] | –
1.6 | 0.35 | – | COc1ccc(NC(C)=O)cc1-n1cc2c(c1C(C)C)[C@@]1(C(=O)Nc3cc(Cl)ccc31)N(c1cc(Cl)ccc1C)C2=O [Compound 108, N-{3-[(3S)-6-chloro-2′-(5-chloro-2-methylphenyl)-2,3′-dioxo-6′-(propan-2-yl)-1,2,3′,5′-tetrahydro-2′H-spiro[indole-3,1′-pyrrolo[3,4-c]pyrrole]-5′-yl]-4-methoxyphenyl}acetamide] | –
36 | 29.9 | – | O=C1C(O)=C(c2ccccc2)C2(C(=O)Nc3cc(Cl)ccc32)N1c1cc(Cl)ccc1F (stereo not drawn) [Compound 45, 6-chloro-1′-(5-chloro-2-fluorophenyl)-4′-hydroxy-3′-phenyl-1,1′,2,5′-tetrahydrospiro[indole-3,2′-pyrrole]-2,5′-dione] | –
64 | 22.3 | – | CC1(c2[nH]nc3c2C2(C(=O)Nc4cc(Cl)ccc42)N(c2cccc(Cl)c2)C3=O)CC1 (stereo not drawn) [Compound 19, 6-chloro-5′-(3-chlorophenyl)-3′-(1-methylcyclopropyl)-1,2,5′,6′-tetrahydro-2′H-spiro[indole-3,4′-pyrrolo[3,4-c]pyrazole]-2,6′-dione] | –
